Measured values from patent US9566312B2, “Cyclic peptides and use as medicines” (priority 2012, dated 2017).
Like-named read-outs stand apart in the source and are kept apart here. Starred links: 1 amine or outer side, 2 acyl side, 3 side chain; linkers in the order of their positions; H or OH if unused. Non-standard residues stand in square brackets, D forms with d. Residues, ends and D or L forms follow the SMILES beside them. X4 = C[C@H](CS(C)(=O)=O)[C@@H](C(=O)[*:2])N(C)[*:1]; X3 = C[C@H](CN1CCOCC1)[C@@H](C(=O)[*:2])N(C)[*:1]; MeBmt = C/C=C/C[C@@H](C)[C@@H](O)[C@H](NC)C(=O)O; X77 = COC[C@H](C)[C@@H](C(=O)[*:2])N(C)[*:1]; NMeL = CN[C@@H](CC(C)C)C(=O)O; NMeV = CN[C@H](C(=O)O)C(C)C; dNMeA = CN[C@H](C)C(=O)O; Abu = CC[C@H](N)C(=O)O

How the values were obtained:
cyclophilin A (CypA) = cyclophilin A (CypA) (Homo sapiens (Human), UniProt P62937); assay: Inhibitor binding to cyclophilin proteins by SPR, CypA; design: unit not given here; conditions: 1:1 binding model;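 note: Single-cycle kinetics on a Biacore T200, compound injected at several concentrations for 1 min each at 50 µL/min, then 10 min dissociation, in HEPES pH 7.4 buffer with 3% DMSO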
cyclophilin B (CypB) = cyclophilin B (CypB) (Homo sapiens (Human), UniProt P23284); assay: Inhibitor binding to cyclophilin proteins by SPR, CypB; design: unit not given here; conditions: 1:1 binding model
Procedure, shortened: (§1)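 A 1:1 model fitted to single-cycle kinetic SPR data gave association and dissociation rates and KD. Compound series injected for 1 min each at 50 μL/min, then 10 min dissociation. Running buffer HEPES pH 7.4 with NaCl, P20 and 3% DMSO; target protein was biotinylated avi-tagged cyclophilin on a CAPture surface.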

CypF = CypF (Homo sapiens (Human), UniProt P30405); assay: Inhibitor binding to cyclophilin proteins by SPR, CypF; conditions: 1:1 binding model
Procedure, shortened: as §1

[1] = test system: genotype 1b subgenomic HCV replicon in Huh7.5 cells; format: cell-based, hepatitis C virus; conditions: read-out: RPLN-1b IC50
Procedure, shortened: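 Replicon inhibition read as renilla luciferase signal versus DMSO controls after 72 h incubation, in Huh7.5 cells harbouring a genotype 1b subgenomic replicon; medium phenol red-free DMEM lacking G418. CC50 determined in parallel via Cell Titer-Glo.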

[2] = test system: peripheral blood mononuclear cells (PBMC); assay: Anti-proliferative or immunosuppressive activity, BrdU incorporation in PHA-stimulated PBMC; format: cell-based; conditions: PHA 3 μg/ml, 60 hour compound treatment; read-out: EMV PBMC IC50
Procedure, shortened: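 BrdU ELISA read-out of DNA synthesis in freshly isolated PBMCs (two donors, 30,000 cells/well, X-VIVO 15). T-cell proliferation triggered with phytohemagglutinin at 3 μg/ml.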

Human MRP2 = Human MRP2 (Homo sapiens (Human), UniProt Q92887); assay: MRP2 transporter vesicle assay; format: in vitro ADME
Method: Method 4: Measuring Hepatic Transporter Interactions […] […] MRP2 Assay: Human MRP2 inhibition was tested using a BD Gentest Transporter Vesicle Assay Kit. Inside-out vesicles were prepared from insect Sf9 cells infected with baculovirus expressing hMRP2. […] The percent remaining of ATP dependent uptake activity was calculated as uptake activity in the presence of inhibitor divided by the uptake activity in the absence of inhibitor.

[3] = target: organic anion transporting polypeptide 1B1 (OATP1B1) (Homo sapiens (Human), UniProt Q9Y6L6); assay: OATP assay in CHO-OATP1B1 cells;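 note: inhibition of probe substrate uptake into the cells, ten minutes exposure, accumulated substrate read by fluorescence once cells were lysed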
Method: In order to determine whether the compounds of the present invention interact with hepatic transporters, experiments were carried out that compared the concentration-dependent inhibition toward the organic anion transporting polypeptide 1B1 (OATP1B1) and the multidrug resistance associated protein 2 (MRP2).
The cells were cultured in DMEM/F12 +10% FBS+2 mM Ala-Gln+1% Pen-Strep for a period of two days, and the media was changed one day post-seeding. Prior to the assay, media was aspirated and were washed −3× with HBSS+10 mM HEPES and the solution was equilibrated for 15 min in HBSS+10 mM HEPES. Solutions containing the inhibitor were prepared in HBSS+10 mM HEPES (up to 1% DMSO). […] After 10 min, the substrate or substrate/inhibitor solution was aspirated and the cells were washed 3× with HBSS+10 mM HEPES. The amount of the transported probe substrate was determined by fluorescent photometry after cell lysis, and the IC50 was derived from the concentration-response curve.

CYP3A4 = CYP3A4 (Homo sapiens (Human), UniProt P08684); assay: Time-dependent inhibition of CYP3A4;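 note: Two-step in vitro assay, kobs derived from residual CYP3A4 activity versus preincubation time per concentration, then kinact and KI by nonlinear fit of kobs against concentration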
Method: Method 5: Measuring Time-Dependent Inhibition of CYP3A4
The CYP3A4 time dependent inhibition potential of various inhibitors was determined by a two step in vitro assay. […] The inactivation rate constant (kobs) was obtained by plotting the activity remaining over pre-incubation time for each concentration of compound. The maximal inactivation rate (kinact) and the inactivation potency (KI) were calculated by non linear regression analysis of the inactivation rate constant (kobs) versus compound concentrations [I] curve according to the equation kobs=[kinact·[I]]/[KI+[I]]

[4] = genotype 1b replicon, 72 h incubation

cyclophilin B (CypB), sequence (P23284 34-216): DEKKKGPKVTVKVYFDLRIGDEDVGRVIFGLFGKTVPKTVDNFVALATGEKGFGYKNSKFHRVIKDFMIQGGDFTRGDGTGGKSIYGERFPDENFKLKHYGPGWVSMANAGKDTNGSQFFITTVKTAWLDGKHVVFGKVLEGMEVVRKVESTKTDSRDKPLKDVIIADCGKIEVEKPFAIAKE
organic anion transporting polypeptide 1B1 (OATP1B1), sequence (Q9Y6L6 whole entry): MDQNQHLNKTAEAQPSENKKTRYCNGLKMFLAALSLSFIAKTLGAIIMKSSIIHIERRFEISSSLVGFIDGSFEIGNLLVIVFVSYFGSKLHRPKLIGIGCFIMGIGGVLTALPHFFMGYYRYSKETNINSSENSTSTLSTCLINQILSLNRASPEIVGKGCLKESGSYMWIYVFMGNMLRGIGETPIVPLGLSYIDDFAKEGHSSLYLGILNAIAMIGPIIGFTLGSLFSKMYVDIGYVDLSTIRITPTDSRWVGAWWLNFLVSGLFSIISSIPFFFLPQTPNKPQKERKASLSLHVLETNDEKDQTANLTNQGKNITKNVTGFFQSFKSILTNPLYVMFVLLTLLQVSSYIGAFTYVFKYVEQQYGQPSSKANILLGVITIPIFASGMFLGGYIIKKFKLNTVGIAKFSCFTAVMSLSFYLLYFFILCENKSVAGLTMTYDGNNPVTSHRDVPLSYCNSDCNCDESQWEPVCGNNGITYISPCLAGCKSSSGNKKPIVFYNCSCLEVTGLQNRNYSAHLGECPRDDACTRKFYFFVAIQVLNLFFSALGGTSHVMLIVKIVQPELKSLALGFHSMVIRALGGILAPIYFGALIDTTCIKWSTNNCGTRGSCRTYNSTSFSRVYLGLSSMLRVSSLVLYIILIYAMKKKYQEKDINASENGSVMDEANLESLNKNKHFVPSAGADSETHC
CypF, sequence (P30405 30-207): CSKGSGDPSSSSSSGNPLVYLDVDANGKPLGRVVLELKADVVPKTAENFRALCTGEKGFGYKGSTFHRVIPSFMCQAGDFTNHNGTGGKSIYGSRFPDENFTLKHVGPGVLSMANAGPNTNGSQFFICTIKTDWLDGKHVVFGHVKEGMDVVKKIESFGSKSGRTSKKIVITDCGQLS
cyclophilin A (CypA), sequence (P62937 whole entry): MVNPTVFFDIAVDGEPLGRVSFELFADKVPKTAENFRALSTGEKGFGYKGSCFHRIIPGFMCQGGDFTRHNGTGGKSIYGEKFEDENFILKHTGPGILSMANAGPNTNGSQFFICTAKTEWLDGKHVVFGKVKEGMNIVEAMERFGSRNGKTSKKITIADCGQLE
Human MRP2, sequence (Q92887 whole entry): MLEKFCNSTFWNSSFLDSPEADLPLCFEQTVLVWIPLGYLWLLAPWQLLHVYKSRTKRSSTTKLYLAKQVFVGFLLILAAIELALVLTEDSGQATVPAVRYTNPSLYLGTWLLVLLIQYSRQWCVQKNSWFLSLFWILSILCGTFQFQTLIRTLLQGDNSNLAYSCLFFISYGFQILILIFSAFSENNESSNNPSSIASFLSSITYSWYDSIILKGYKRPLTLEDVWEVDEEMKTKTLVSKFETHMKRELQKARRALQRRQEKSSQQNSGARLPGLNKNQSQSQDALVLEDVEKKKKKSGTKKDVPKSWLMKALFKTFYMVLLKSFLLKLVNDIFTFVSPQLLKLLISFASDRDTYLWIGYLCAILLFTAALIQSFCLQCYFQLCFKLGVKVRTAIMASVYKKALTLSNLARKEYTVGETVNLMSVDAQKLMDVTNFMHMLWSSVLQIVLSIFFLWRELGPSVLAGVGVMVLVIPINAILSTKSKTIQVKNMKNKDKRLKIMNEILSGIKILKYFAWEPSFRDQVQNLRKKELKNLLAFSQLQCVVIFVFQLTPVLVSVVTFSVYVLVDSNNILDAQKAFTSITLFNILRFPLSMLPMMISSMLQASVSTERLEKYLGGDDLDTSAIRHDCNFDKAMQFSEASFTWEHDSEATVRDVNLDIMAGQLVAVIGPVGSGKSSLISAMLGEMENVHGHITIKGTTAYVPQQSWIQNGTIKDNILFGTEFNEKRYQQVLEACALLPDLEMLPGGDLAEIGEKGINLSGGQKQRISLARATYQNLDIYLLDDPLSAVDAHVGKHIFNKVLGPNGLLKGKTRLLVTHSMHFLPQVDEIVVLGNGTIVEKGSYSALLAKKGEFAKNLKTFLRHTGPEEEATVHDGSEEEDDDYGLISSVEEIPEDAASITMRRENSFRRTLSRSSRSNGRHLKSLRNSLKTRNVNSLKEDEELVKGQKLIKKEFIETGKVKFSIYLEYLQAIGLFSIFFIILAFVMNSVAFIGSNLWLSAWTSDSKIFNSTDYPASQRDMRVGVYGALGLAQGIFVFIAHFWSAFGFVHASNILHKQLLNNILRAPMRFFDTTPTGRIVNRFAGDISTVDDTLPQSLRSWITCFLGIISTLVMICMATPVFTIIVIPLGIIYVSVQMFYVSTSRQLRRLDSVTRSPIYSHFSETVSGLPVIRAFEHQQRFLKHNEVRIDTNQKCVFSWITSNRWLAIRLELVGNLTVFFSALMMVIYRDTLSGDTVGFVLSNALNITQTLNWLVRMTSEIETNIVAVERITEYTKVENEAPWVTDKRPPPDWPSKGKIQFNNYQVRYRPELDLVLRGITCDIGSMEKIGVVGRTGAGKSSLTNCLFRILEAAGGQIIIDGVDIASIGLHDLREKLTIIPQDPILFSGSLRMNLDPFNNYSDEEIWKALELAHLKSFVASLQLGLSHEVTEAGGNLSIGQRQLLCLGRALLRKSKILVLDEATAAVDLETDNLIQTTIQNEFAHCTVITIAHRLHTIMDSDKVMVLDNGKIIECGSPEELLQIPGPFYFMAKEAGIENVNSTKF
CYP3A4, sequence (P08684 whole entry): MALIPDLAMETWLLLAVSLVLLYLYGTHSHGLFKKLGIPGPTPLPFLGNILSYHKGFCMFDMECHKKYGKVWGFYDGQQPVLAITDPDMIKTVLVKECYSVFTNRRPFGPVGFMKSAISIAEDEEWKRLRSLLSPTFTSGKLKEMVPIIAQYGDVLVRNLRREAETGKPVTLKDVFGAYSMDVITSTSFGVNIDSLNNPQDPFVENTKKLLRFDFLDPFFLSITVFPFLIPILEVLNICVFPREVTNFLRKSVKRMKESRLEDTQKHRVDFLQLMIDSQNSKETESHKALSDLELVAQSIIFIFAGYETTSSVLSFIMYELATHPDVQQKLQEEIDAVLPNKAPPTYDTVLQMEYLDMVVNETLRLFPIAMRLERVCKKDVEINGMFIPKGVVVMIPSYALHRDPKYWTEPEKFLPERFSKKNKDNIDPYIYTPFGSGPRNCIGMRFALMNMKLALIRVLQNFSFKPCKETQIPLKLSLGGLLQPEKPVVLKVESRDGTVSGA

| Structure (SMILES) | CypA Kd (cyclophilin A (CypA)) | CypB Kd (cyclophilin B (CypB)) | CypF Kd (CypF) | IC50 [1, 4] | IC50 [2] | IC50 (Human MRP2) | IC50 [3] | Ki (CYP3A4) | IC50 [1] | NIM TDI kinact/Ki (CYP3A4; probe substrate midazolam) |
| --- | --- | --- | --- | --- | --- | --- | --- | --- | --- | --- |
| C/C=C/C[C@@H](C)[C@@H](O)[C@H]1C(=O)N[C@@H](CC)C(=O)N(C)[C@H](C)C(=O)N(C)[C@@H]([C@H](C)COCCOC(=O)N2CCN(C)CC2)C(=O)N[C@@H](C(C)C)C(=O)N(C)[C@@H](CC(C)C)C(=O)N[C@@H](C)C(=O)N[C@H](C)C(=O)N(C)[C@@H](CC(C)C)C(=O)N(C)[C@@H](CC(C)C)C(=O)N(C)[C@@H](C(C)C)C(=O)N1C (stereo in doubt) [Compound 2.9, 3-[D-Ala]-4-[(2S,3S)-3-methyl-2-(methylamino)-4-(2-((4-methylpiperazine-1-carbonyl)oxy)ethoxy)butanoyl]-cyclosporin] | 0.9 | 0.5 | 0.4 nM | 58 nM | 13.3 µM | 30 µM | 8.7 µM | > 50 µM | – | – |
| C/C=C/C[C@@H](C)[C@@H](O)[C@H]1C(=O)N[C@@H](CC)C(=O)N(C)[C@H](C)C(=O)N(C)[C@@H]([C@H](C)COC)C(=O)N[C@@H](C(C)C)C(=O)N(C)[C@@H](CC(C)C)C(=O)N[C@@H](C)C(=O)N[C@H](C)C(=O)N(C)[C@@H](CC(C)C)C(=O)N(C)[C@@H](CC(C)C)C(=O)N(C)[C@@H](C(C)C)C(=O)N1C [Compound 2.1, 3-[D-Ala]-4-[(2S,3S)-4-methoxy-3-methyl-2-(methylamino)butanoyl]-cyclosporin] | 2.05 | 1.45 | 1.3 nM | 29 nM | 10.6 µM | 14 µM | 5.1 µM | > 50 µM | – | – |
| C/C=C/C[C@@H](C)[C@@H](O)[C@H]1C(=O)N[C@@H](CC)C(=O)N(C)[C@H](C)C(=O)N(C)[C@@H]([C@@H](C)COC)C(=O)N[C@@H](C(C)C)C(=O)N(C)[C@@H](CC(C)C)C(=O)N[C@@H](C)C(=O)N[C@H](C)C(=O)N(C)[C@@H](CC(C)C)C(=O)N(C)[C@@H](CC(C)C)C(=O)N(C)[C@@H](C(C)C)C(=O)N1C [Compound 2.2, 3-[D-Ala]-4-[(2S,3R)-4-methoxy-3-methyl-2-(methylamino)butanoyl]-cyclosporin] (cyclo(A[dA][NMeL][NMeL][NMeV][MeBmt][Abu][dNMeA][X77]V[NMeL])) | 1.7 | 0.8 | 0.8 nM | – | 12.6 µM | 15 µM | 1.9 µM | – | 48 nM | 0.0003 µL/min/pmol |
| C/C=C/C[C@@H](C)[C@@H](O)[C@H]1C(=O)N[C@@H](CC)C(=O)N(C)[C@H](C)C(=O)N(C)[C@@H]([C@H](C)CS(C)(=O)=O)C(=O)N[C@@H](C(C)C)C(=O)N(C)[C@@H](CC(C)C)C(=O)N[C@@H](C)C(=O)N[C@H](C)C(=O)N(C)[C@@H](CC(C)C)C(=O)N(C)[C@@H](CC(C)C)C(=O)N(C)[C@@H](C(C)C)C(=O)N1C [Compound 2.4, 3-[D-Ala]-4-[(2S,3S)-3-methyl-2-(methylamino)-4-(methylsulfonyl)butanoyl]-cyclosporin] (cyclo(A[dA][NMeL][NMeL][NMeV][MeBmt][Abu][dNMeA][X4]V[NMeL])) | 1.5 | 0.6 | 0.6 nM | 95 nM | 1.9 µM | 9 µM | 1.4 µM | > 50 µM | – | – |
| C/C=C/C[C@@H](C)[C@@H](O)[C@H]1C(=O)N[C@@H](CC)C(=O)N(C)[C@H](C)C(=O)N(C)[C@@H]([C@H](C)CN2CCOCC2)C(=O)N[C@@H](C(C)C)C(=O)N(C)[C@@H](CC(C)C)C(=O)N[C@@H](C)C(=O)N[C@H](C)C(=O)N(C)[C@@H](CC(C)C)C(=O)N(C)[C@@H](CC(C)C)C(=O)N(C)[C@@H](C(C)C)C(=O)N1C [Compound 2.5.2, 3-[D-Ala]-4-[(2S,3R)-3-methyl-2-(methylamino)-4-morpholinobutanoyl]-cyclosporin] (cyclo(A[dA][NMeL][NMeL][NMeV][MeBmt][Abu][dNMeA][X3]V[NMeL])) | 4.3 | 2.9 | 2.2 nM | 100 nM | 6.3 µM | 18 µM | 8.2 µM | > 50 µM | – | – |
